Results from US20040087633A1, “Methylidene oxazolidinone compound and preparation method thereof” (Korea Institute of Science and Technology, priority 2002, published 2004).
Converted amounts (≈) assume the structure as drawn.

Legend:
Test in all cases: Anti-microbial activity test in vitro (agar dilution MIC)
CRSA C1062 = assay type: cell-based, Staphylococcus aureus; conditions: CRSA C1062; Agar Dilution method, Mueller Hinton Agar, 18 hours at 37° C.
How it was run: (§1)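 Visual endpoint: minimum inhibitory concentration (μg/ml) by agar dilution, Mueller Hinton medium, twofold steps, 18 h at 37 °C.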

CRSA C6043 = assay type: cell-based, Staphylococcus aureus; conditions: CRSA C6043; Agar Dilution method, Mueller Hinton Agar, 18 hours at 37° C.
How it was run: as §1

MRSA C2207 = assay type: cell-based, Staphylococcus aureus; conditions: MRSA C2207; Agar Dilution method, Mueller Hinton Agar, 18 hours at 37° C.
How it was run: as §1

MRSA C5100 = assay type: cell-based, Staphylococcus aureus; conditions: MRSA C5100; Agar Dilution method, Mueller Hinton Agar, 18 hours at 37° C.
How it was run: as §1

MRSA C6068 = assay type: cell-based, Staphylococcus aureus; conditions: MRSA C6068; Agar Dilution method, Mueller Hinton Agar, 18 hours at 37° C.
How it was run: as §1

MSSA C2214 = assay type: cell-based, Staphylococcus aureus; conditions: MSSA C2214; Agar Dilution method, Mueller Hinton Agar, 18 hours at 37° C.
How it was run: as §1

MSSA C7142 = assay type: cell-based, Staphylococcus aureus; conditions: MSSA C7142; Agar Dilution method, Mueller Hinton Agar, 18 hours at 37° C.
How it was run: as §1

E. faecalis ATCC29212 = assay type: cell-based; conditions: E. faecalis ATCC29212; Agar Dilution method, Mueller Hinton Agar, 18 hours at 37° C.
How it was run: as §1

E. faecalis C6288 = assay type: cell-based; conditions: E. faecalis C6288; Agar Dilution method, Mueller Hinton Agar, 18 hours at 37° C.
How it was run: as §1

E. faecalis C6291 = assay type: cell-based; conditions: E. faecalis C6291; Agar Dilution method, Mueller Hinton Agar, 18 hours at 37° C.
How it was run: as §1

E. faecium C2252 = assay type: cell-based; conditions: E. faecium C2252; Agar Dilution method, Mueller Hinton Agar, 18 hours at 37° C.
How it was run: as §1

E. faecium C6301 = assay type: cell-based; conditions: E. faecium C6301; Agar Dilution method, Mueller Hinton Agar, 18 hours at 37° C.
How it was run: as §1

S. aureus ATCC 29213 = assay type: cell-based; conditions: Agar Dilution method, Mueller Hinton Agar, 18 hours at 37° C.
How it was run: as §1

S. epidermidis ATCC12228 = assay type: cell-based; conditions: S. epidermidis ATCC12228; Agar Dilution method, Mueller Hinton Agar, 18 hours at 37° C.
How it was run: as §1

S. epidermidis C2230 = assay type: cell-based; conditions: S. epidermidis C2230; Agar Dilution method, Mueller Hinton Agar, 18 hours at 37° C.
How it was run: as §1

S. epidermidis C2235 = assay type: cell-based; conditions: S. epidermidis C2235; Agar Dilution method, Mueller Hinton Agar, 18 hours at 37° C.
How it was run: as §1

S. pyogenes ATCC8668 = assay type: cell-based; conditions: S. pyogenes ATCC8668; Agar Dilution method, Mueller Hinton Agar, 18 hours at 37° C.
How it was run: as §1

S. pyogenes C6003 = assay type: cell-based; conditions: S. pyogenes C6003; Agar Dilution method, Mueller Hinton Agar, 18 hours at 37° C.
How it was run: as §1

S. pyogenes C6012 = assay type: cell-based; conditions: S. pyogenes C6012; Agar Dilution method, Mueller Hinton Agar, 18 hours at 37° C.
How it was run: as §1

VRE C6487 = assay type: cell-based, Enterococcus faecium; conditions: VRE C6487; Agar Dilution method, Mueller Hinton Agar, 18 hours at 37° C.
How it was run: as §1

VRE C6488 = assay type: cell-based, Enterococcus faecium; conditions: VRE C6488; Agar Dilution method, Mueller Hinton Agar, 18 hours at 37° C.
How it was run: as §1

Compound	Minimum inhibition concentration (MIC) (CRSA C1062)	Minimum inhibition concentration (MIC) (CRSA C6043)	Minimum inhibition concentration (MIC) (MRSA C2207)	Minimum inhibition concentration (MIC) (MRSA C5100)	Minimum inhibition concentration (MIC) (MRSA C6068)	Minimum inhibition concentration (MIC) (MSSA C2214)	Minimum inhibition concentration (MIC) (MSSA C7142)	Minimum inhibition concentration (MIC) (E. faecalis ATCC29212)	Minimum inhibition concentration (MIC) (E. faecalis C6288)	Minimum inhibition concentration (MIC) (E. faecalis C6291)	Minimum inhibition concentration (MIC) (E. faecium C2252)	Minimum inhibition concentration (MIC) (E. faecium C6301)	Minimum inhibition concentration (MIC) (S. aureus ATCC 29213)	Minimum inhibition concentration (MIC) (S. epidermidis ATCC12228)	Minimum inhibition concentration (MIC) (S. epidermidis C2230)	Minimum inhibition concentration (MIC) (S. epidermidis C2235)	Minimum inhibition concentration (MIC) (S. pyogenes ATCC8668)	Minimum inhibition concentration (MIC) (S. pyogenes C6003)	Minimum inhibition concentration (MIC) (S. pyogenes C6012)	Minimum inhibition concentration (MIC) (VRE C6487)	also measured
CC(=O)NC[C@H]1CN(c2ccc(N3CCC(=CC(C)OC(=O)CCl)CC3)c(F)c2)C(=O)O1 (stereo partly drawn) [Compound 24, N-[[(5S)-3-[3-fluoro-4-(4-(2-(chloroacetoxy)propylidene)-piperidinyl)-phenyl]-2-oxo-5-oxazolidinyl]methyl]acetamide]	8 µg/mL (≈ 17.1 µM)	16 µg/mL (≈ 34.2 µM)	16 µg/mL (≈ 34.2 µM)	16 µg/mL (≈ 34.2 µM)	8 µg/mL (≈ 17.1 µM)	16 µg/mL (≈ 34.2 µM)	16 µg/mL (≈ 34.2 µM)	8 µg/mL (≈ 17.1 µM)	16 µg/mL (≈ 34.2 µM)	16 µg/mL (≈ 34.2 µM)	16 µg/mL (≈ 34.2 µM)	8 µg/mL (≈ 17.1 µM)	16 µg/mL (≈ 34.2 µM)	2 µg/mL (≈ 4.27 µM)	8 µg/mL (≈ 17.1 µM)	8 µg/mL (≈ 17.1 µM)	2 µg/mL (≈ 4.27 µM)	8 µg/mL (≈ 17.1 µM)	2 µg/mL (≈ 4.27 µM)	4 µg/mL (≈ 8.55 µM)	Minimum inhibition concentration (MIC) (VRE C6488): 4 µg/mL (≈ 8.55 µM)
CC(=S)NC[C@H]1CN(c2ccc(N3CCC(=CC#N)CC3)c(F)c2)C(=O)O1 [Compound 26, N-[[(5S)-3-[3-fluoro-4-(4-(cyanomethylidene)piperidinyl)-phenyl]-2-oxo-5-oxazolidinyl]methyl]thioacetamide]	2 µg/mL (≈ 5.15 µM)	2 µg/mL (≈ 5.15 µM)	2 µg/mL (≈ 5.15 µM)	1 µg/mL (≈ 2.57 µM)	2 µg/mL (≈ 5.15 µM)	2 µg/mL (≈ 5.15 µM)	2 µg/mL (≈ 5.15 µM)	2 µg/mL (≈ 5.15 µM)	1 µg/mL (≈ 2.57 µM)	1 µg/mL (≈ 2.57 µM)	1 µg/mL (≈ 2.57 µM)	1 µg/mL (≈ 2.57 µM)	2 µg/mL (≈ 5.15 µM)	0.5 µg/mL (≈ 1.29 µM)	1 µg/mL (≈ 2.57 µM)	0.5 µg/mL (≈ 1.29 µM)	0.5 µg/mL (≈ 1.29 µM)	0.25 µg/mL (≈ 0.644 µM)	0.25 µg/mL (≈ 0.644 µM)	0.5 µg/mL (≈ 1.29 µM)	Minimum inhibition concentration (MIC) (VRE C6488): 0.5 µg/mL (≈ 1.29 µM)
CC(=O)NC[C@H]1CN(c2ccc(N3CCC(=CC(C)=NO)CC3)c(F)c2)C(=O)O1 [Compound 20, N-[[(5S)-3-[3-fluoro-4-(4-(2-hydroxyiminopropylidene)-piperidinyl)phenyl]-2-oxo-5-oxazolidinyl]methyl]acetamide]	8 µg/mL (≈ 19.8 µM)	8 µg/mL (≈ 19.8 µM)	8 µg/mL (≈ 19.8 µM)	8 µg/mL (≈ 19.8 µM)	4 µg/mL (≈ 9.89 µM)	8 µg/mL (≈ 19.8 µM)	16 µg/mL (≈ 39.6 µM)	8 µg/mL (≈ 19.8 µM)	4 µg/mL (≈ 9.89 µM)	4 µg/mL (≈ 9.89 µM)	4 µg/mL (≈ 9.89 µM)	4 µg/mL (≈ 9.89 µM)	8 µg/mL (≈ 19.8 µM)	1 µg/mL (≈ 2.47 µM)	4 µg/mL (≈ 9.89 µM)	4 µg/mL (≈ 9.89 µM)	1 µg/mL (≈ 2.47 µM)	4 µg/mL (≈ 9.89 µM)	1 µg/mL (≈ 2.47 µM)	4 µg/mL (≈ 9.89 µM)	Minimum inhibition concentration (MIC) (VRE C6488): 4 µg/mL (≈ 9.89 µM)
